# Test results as given in ChEMBL document CHEMBL4339188, “Tackling neuroinflammation and cholinergic deficit in Alzheimer's disease: Multi-target inhibitors of cholinesterases, cyclooxygenase-2 and 15-lipoxygenase” (Eur J Med Chem, 2019).
# Target: Acetylcholinesterase (Electrophorus electricus, UniProt O42275)
# Assay: Inhibition of electric eel AChE using acetylthiocholine iodide as substrate incubated for 10 mins by spectrophotometry based Ellman's method
# Conditions: not given
# Sequence of Acetylcholinesterase (Electrophorus electricus, UniProt O42275) (O42275 whole entry): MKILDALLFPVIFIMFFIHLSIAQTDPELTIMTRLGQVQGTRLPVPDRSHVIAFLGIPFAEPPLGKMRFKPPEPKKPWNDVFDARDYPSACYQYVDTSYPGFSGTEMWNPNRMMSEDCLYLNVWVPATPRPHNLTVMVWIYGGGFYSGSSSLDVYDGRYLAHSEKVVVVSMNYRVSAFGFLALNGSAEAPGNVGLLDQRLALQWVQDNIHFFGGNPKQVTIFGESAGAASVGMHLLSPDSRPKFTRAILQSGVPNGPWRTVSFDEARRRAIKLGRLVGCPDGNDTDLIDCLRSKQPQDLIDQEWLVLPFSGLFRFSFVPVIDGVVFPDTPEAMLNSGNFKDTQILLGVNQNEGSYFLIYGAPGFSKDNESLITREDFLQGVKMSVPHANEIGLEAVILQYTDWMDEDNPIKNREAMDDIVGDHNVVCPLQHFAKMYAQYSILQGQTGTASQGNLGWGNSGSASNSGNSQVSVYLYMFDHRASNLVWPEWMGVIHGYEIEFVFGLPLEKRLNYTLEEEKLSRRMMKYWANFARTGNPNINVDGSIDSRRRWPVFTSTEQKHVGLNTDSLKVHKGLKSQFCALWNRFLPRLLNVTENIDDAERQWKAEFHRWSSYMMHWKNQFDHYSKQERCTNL
row,SMILES,IC50 [µM]
1,S=C(NNc1c2c(nc3ccccc13)CCCC2)Nc1ccccc1,1.85
2,C(=N\Nc1c2c(nc3ccccc13)CCCC2)/c1ccc(OCc2cn(-c3ccccc3)nn2)cc1,0.917
3,Cc1ccc(-n2cc(COc3ccc(/C=N/Nc4c5c(nc6ccccc46)CCCC5)cc3)nn2)cc1.Cl,20.2
4,S=C(NNc1c2c(nc3ccccc13)CCCC2)Nc1ccc(Cl)cc1,3.83
5,C=CCNC(=S)NNc1c2c(nc3ccccc13)CCCC2,1.35
6,NS(=O)(=O)c1ccc(-n2cc(COc3ccc(/C=N/Nc4c5c(nc6ccccc46)CCCC5)cc3)nn2)cc1,0.807
7,O=[N+]([O-])c1cccc(-n2cc(COc3ccc(/C=N/Nc4c5c(nc6ccccc46)CCCC5)cc3)nn2)c1,0.066
8,COc1ccc(-n2cc(COc3ccc(/C=N/Nc4c5c(nc6ccccc46)CCCC5)cc3)nn2)cc1.Cl,2.07
9,Brc1ccc(-n2cc(COc3ccc(/C=N/Nc4c5c(nc6ccccc46)CCCC5)cc3)nn2)cc1.Cl,18.1

# Test system: not listed separately
# Assay: in vitro
# Conditions: human, HepG2 cells
# Description: Cytotoxicity against human HepG2 cell assessed as safe dose that maintains 100% cell viability incubated for 72 hrs by MTT assay
row,SMILES,MNTC at 72 h [µM]
1,S=C(NNc1c2c(nc3ccccc13)CCCC2)Nc1ccccc1,6.78
2,C(=N\Nc1c2c(nc3ccccc13)CCCC2)/c1ccc(OCc2cn(-c3ccccc3)nn2)cc1,3.1
3,Cc1ccc(-n2cc(COc3ccc(/C=N/Nc4c5c(nc6ccccc46)CCCC5)cc3)nn2)cc1.Cl,113
4,S=C(NNc1c2c(nc3ccccc13)CCCC2)Nc1ccc(Cl)cc1,1.97
5,C=CCNC(=S)NNc1c2c(nc3ccccc13)CCCC2,0.63
6,NS(=O)(=O)c1ccc(-n2cc(COc3ccc(/C=N/Nc4c5c(nc6ccccc46)CCCC5)cc3)nn2)cc1,1.04
7,O=[N+]([O-])c1cccc(-n2cc(COc3ccc(/C=N/Nc4c5c(nc6ccccc46)CCCC5)cc3)nn2)c1,4.18
8,COc1ccc(-n2cc(COc3ccc(/C=N/Nc4c5c(nc6ccccc46)CCCC5)cc3)nn2)cc1.Cl,27.2
9,Brc1ccc(-n2cc(COc3ccc(/C=N/Nc4c5c(nc6ccccc46)CCCC5)cc3)nn2)cc1.Cl,47.9

# Test system: PC-12
# Assay: Anti-inflammatory activity in lipopolysaccharide challenged rat PC12 cells assessed as decrease in TNFalpha production at 100 uM pre-incubated for 24 hrs before LPS challenge for 48 hrs by immunoblot analysis
# Assay type: functional
# Conditions: not given
row,SMILES,inhibition at 100 µM [%]
1,Cc1ccc(-n2cc(COc3ccc(/C=N/Nc4c5c(nc6ccccc46)CCCC5)cc3)nn2)cc1.Cl,> 60
2,COc1ccc(-n2cc(COc3ccc(/C=N/Nc4c5c(nc6ccccc46)CCCC5)cc3)nn2)cc1.Cl,> 60

# Target: Acetylcholinesterase (Homo sapiens, UniProt P22303)
# Assay: Inhibition of recombinant human AChE using acetylthiocholine iodide as substrate pre-incubated for 20 mins before substrate addition and measured for 180 secs by spectrophotometry based Ellman's method
# Conditions: not given
# Sequence of Acetylcholinesterase (Homo sapiens, UniProt P22303) (P22303 whole entry): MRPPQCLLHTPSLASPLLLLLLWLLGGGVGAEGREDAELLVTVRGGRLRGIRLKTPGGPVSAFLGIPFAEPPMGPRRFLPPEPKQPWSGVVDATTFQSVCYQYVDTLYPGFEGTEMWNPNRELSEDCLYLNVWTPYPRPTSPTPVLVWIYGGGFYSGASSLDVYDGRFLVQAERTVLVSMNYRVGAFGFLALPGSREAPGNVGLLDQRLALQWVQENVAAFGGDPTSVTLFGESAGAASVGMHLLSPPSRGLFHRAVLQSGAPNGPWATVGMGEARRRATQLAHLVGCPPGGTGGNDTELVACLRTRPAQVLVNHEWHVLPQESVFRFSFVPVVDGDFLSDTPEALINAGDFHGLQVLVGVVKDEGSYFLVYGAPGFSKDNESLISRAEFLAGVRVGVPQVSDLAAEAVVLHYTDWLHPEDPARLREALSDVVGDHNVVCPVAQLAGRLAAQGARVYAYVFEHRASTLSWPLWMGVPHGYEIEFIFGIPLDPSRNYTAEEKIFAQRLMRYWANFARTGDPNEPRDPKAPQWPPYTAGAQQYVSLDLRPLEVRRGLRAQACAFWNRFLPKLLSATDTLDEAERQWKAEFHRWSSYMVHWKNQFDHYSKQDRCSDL
row,SMILES,IC50 [µM]
1,S=C(NNc1c2c(nc3ccccc13)CCCC2)Nc1ccccc1,0.61
2,C(=N\Nc1c2c(nc3ccccc13)CCCC2)/c1ccc(OCc2cn(-c3ccccc3)nn2)cc1,0.9
3,Cc1ccc(-n2cc(COc3ccc(/C=N/Nc4c5c(nc6ccccc46)CCCC5)cc3)nn2)cc1.Cl,3.75
4,S=C(NNc1c2c(nc3ccccc13)CCCC2)Nc1ccc(Cl)cc1,0.786
5,C=CCNC(=S)NNc1c2c(nc3ccccc13)CCCC2,5.77
6,NS(=O)(=O)c1ccc(-n2cc(COc3ccc(/C=N/Nc4c5c(nc6ccccc46)CCCC5)cc3)nn2)cc1,1.11
7,O=[N+]([O-])c1cccc(-n2cc(COc3ccc(/C=N/Nc4c5c(nc6ccccc46)CCCC5)cc3)nn2)c1,1.46
8,COc1ccc(-n2cc(COc3ccc(/C=N/Nc4c5c(nc6ccccc46)CCCC5)cc3)nn2)cc1.Cl,2.3
9,Brc1ccc(-n2cc(COc3ccc(/C=N/Nc4c5c(nc6ccccc46)CCCC5)cc3)nn2)cc1.Cl,12.8

# Test system: HepG2
# Assay: cells
# Conditions: Homo sapiens, HepG2, 72 h
# Description: Cytotoxicity against human HepG2 cell assessed as reduction in cell viability incubated for 72 hrs by MTT assay
row,SMILES,IC50 [µM]
1,S=C(NNc1c2c(nc3ccccc13)CCCC2)Nc1ccccc1,82.9
2,C(=N\Nc1c2c(nc3ccccc13)CCCC2)/c1ccc(OCc2cn(-c3ccccc3)nn2)cc1,28.4
3,Cc1ccc(-n2cc(COc3ccc(/C=N/Nc4c5c(nc6ccccc46)CCCC5)cc3)nn2)cc1.Cl,262
4,S=C(NNc1c2c(nc3ccccc13)CCCC2)Nc1ccc(Cl)cc1,21.9
5,C=CCNC(=S)NNc1c2c(nc3ccccc13)CCCC2,80
6,NS(=O)(=O)c1ccc(-n2cc(COc3ccc(/C=N/Nc4c5c(nc6ccccc46)CCCC5)cc3)nn2)cc1,25.7
7,O=[N+]([O-])c1cccc(-n2cc(COc3ccc(/C=N/Nc4c5c(nc6ccccc46)CCCC5)cc3)nn2)c1,50.1
8,COc1ccc(-n2cc(COc3ccc(/C=N/Nc4c5c(nc6ccccc46)CCCC5)cc3)nn2)cc1.Cl,65.1
9,Brc1ccc(-n2cc(COc3ccc(/C=N/Nc4c5c(nc6ccccc46)CCCC5)cc3)nn2)cc1.Cl,96.7

# Test system: not listed separately
# Assay: in vitro
# Conditions: mouse, mouse neuronal cells
# Description: Toxicity in mouse neuronal cells assessed as safe dose that maintains 100% cell viability incubated for 72 hrs by MTT assay
row,SMILES,MNTC at 72 h [nM]
1,S=C(NNc1c2c(nc3ccccc13)CCCC2)Nc1ccccc1,395
2,C(=N\Nc1c2c(nc3ccccc13)CCCC2)/c1ccc(OCc2cn(-c3ccccc3)nn2)cc1,1950
3,Cc1ccc(-n2cc(COc3ccc(/C=N/Nc4c5c(nc6ccccc46)CCCC5)cc3)nn2)cc1.Cl,2580
4,S=C(NNc1c2c(nc3ccccc13)CCCC2)Nc1ccc(Cl)cc1,2400
5,C=CCNC(=S)NNc1c2c(nc3ccccc13)CCCC2,2770
6,NS(=O)(=O)c1ccc(-n2cc(COc3ccc(/C=N/Nc4c5c(nc6ccccc46)CCCC5)cc3)nn2)cc1,1580
7,O=[N+]([O-])c1cccc(-n2cc(COc3ccc(/C=N/Nc4c5c(nc6ccccc46)CCCC5)cc3)nn2)c1,976
8,COc1ccc(-n2cc(COc3ccc(/C=N/Nc4c5c(nc6ccccc46)CCCC5)cc3)nn2)cc1.Cl,1450
9,Brc1ccc(-n2cc(COc3ccc(/C=N/Nc4c5c(nc6ccccc46)CCCC5)cc3)nn2)cc1.Cl,1000

# Test system: PC-12
# Assay: Cytotoxicity against rat PC12 cells assessed as reduction in cell viability up to 300 uM by MTS assay
# Assay type: cell-based
# Conditions: not given
row,SMILES,Activity
1,Cc1ccc(-n2cc(COc3ccc(/C=N/Nc4c5c(nc6ccccc46)CCCC5)cc3)nn2)cc1.Cl,Non-Toxic
2,COc1ccc(-n2cc(COc3ccc(/C=N/Nc4c5c(nc6ccccc46)CCCC5)cc3)nn2)cc1.Cl,30%
3,Brc1ccc(-n2cc(COc3ccc(/C=N/Nc4c5c(nc6ccccc46)CCCC5)cc3)nn2)cc1.Cl,30%

# Test system: PC-12
# Assay: Anti-inflammatory activity in lipopolysaccharide challenged rat PC12 cells assessed as decrease in interleukin-1 beta production at 100 uM pre-incubated for 24 hrs before LPS challenge for 48 hrs by immunoblot analysis
# Assay type: functional
# Conditions: not given
row,SMILES,inhibition at 100 µM [%]
1,Cc1ccc(-n2cc(COc3ccc(/C=N/Nc4c5c(nc6ccccc46)CCCC5)cc3)nn2)cc1.Cl,> 90
2,COc1ccc(-n2cc(COc3ccc(/C=N/Nc4c5c(nc6ccccc46)CCCC5)cc3)nn2)cc1.Cl,> 90

# Test system: not listed separately
# Assay: in vitro
# Conditions: mouse, mouse neuronal cells
# Remark: another data set of the same source
# Description: Toxicity in mouse neuronal cells assessed as reduction in cell viability incubated for 72 hrs by MTT assay
row,SMILES,IC50 at 72 h [µM]
1,S=C(NNc1c2c(nc3ccccc13)CCCC2)Nc1ccccc1,10.9
2,C(=N\Nc1c2c(nc3ccccc13)CCCC2)/c1ccc(OCc2cn(-c3ccccc3)nn2)cc1,34.5
3,Cc1ccc(-n2cc(COc3ccc(/C=N/Nc4c5c(nc6ccccc46)CCCC5)cc3)nn2)cc1.Cl,5.85
4,S=C(NNc1c2c(nc3ccccc13)CCCC2)Nc1ccc(Cl)cc1,7.1
5,C=CCNC(=S)NNc1c2c(nc3ccccc13)CCCC2,6.83
6,NS(=O)(=O)c1ccc(-n2cc(COc3ccc(/C=N/Nc4c5c(nc6ccccc46)CCCC5)cc3)nn2)cc1,16.4
7,O=[N+]([O-])c1cccc(-n2cc(COc3ccc(/C=N/Nc4c5c(nc6ccccc46)CCCC5)cc3)nn2)c1,28
8,COc1ccc(-n2cc(COc3ccc(/C=N/Nc4c5c(nc6ccccc46)CCCC5)cc3)nn2)cc1.Cl,3.98
9,Brc1ccc(-n2cc(COc3ccc(/C=N/Nc4c5c(nc6ccccc46)CCCC5)cc3)nn2)cc1.Cl,18.6

# Test system: not listed separately
# Assay: Safety index, ratio of EC100 for test compound to EC100 for tacrine for cytotoxicity against human HepG2 cell assessed as safe dose that maintains 100% cell viability incubated for 72 hrs by MTT assay
# Assay type: cell-based
# Conditions: HepG2 cells
row,SMILES,selectivity ratio at 72 h
1,Cc1ccc(-n2cc(COc3ccc(/C=N/Nc4c5c(nc6ccccc46)CCCC5)cc3)nn2)cc1.Cl,116
2,COc1ccc(-n2cc(COc3ccc(/C=N/Nc4c5c(nc6ccccc46)CCCC5)cc3)nn2)cc1.Cl,27

# Target: T1, Prostaglandin G/H synthase 1 (Ovis aries, UniProt P05979)
# T1 sequence (P05979 whole entry): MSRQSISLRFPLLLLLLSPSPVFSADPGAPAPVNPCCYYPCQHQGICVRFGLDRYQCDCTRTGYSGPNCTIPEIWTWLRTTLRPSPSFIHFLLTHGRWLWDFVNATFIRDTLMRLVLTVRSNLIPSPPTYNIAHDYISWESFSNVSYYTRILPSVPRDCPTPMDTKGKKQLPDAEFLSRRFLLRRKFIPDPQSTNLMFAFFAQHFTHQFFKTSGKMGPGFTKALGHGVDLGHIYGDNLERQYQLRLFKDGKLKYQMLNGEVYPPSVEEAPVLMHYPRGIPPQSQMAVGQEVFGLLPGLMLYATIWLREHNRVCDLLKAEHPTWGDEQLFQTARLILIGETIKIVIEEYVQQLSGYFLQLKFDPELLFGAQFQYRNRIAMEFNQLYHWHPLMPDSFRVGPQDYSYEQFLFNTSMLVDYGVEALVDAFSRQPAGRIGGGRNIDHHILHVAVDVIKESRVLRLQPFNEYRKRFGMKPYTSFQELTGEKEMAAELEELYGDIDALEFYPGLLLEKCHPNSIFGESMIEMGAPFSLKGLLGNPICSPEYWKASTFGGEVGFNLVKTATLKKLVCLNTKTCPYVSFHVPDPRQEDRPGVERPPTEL
# Assay: Inhibition of ovine COX -1 by colorimetric inhibitor screening assay kit method
# Conditions: not given
row,SMILES,IC50 [µM]
1,Cc1ccc(-n2cc(COc3ccc(/C=N/Nc4c5c(nc6ccccc46)CCCC5)cc3)nn2)cc1.Cl,10.9
2,COc1ccc(-n2cc(COc3ccc(/C=N/Nc4c5c(nc6ccccc46)CCCC5)cc3)nn2)cc1.Cl,12.2
3,Brc1ccc(-n2cc(COc3ccc(/C=N/Nc4c5c(nc6ccccc46)CCCC5)cc3)nn2)cc1.Cl,13.9

# Target: Cholinesterase (Homo sapiens, UniProt P06276)
# Assay: Inhibition of human serum BChE using butyrylthiocholine iodide as substrate pre-incubated for 20 mins before substrate addition and measured for 180 secs by spectrophotometry based Ellman's method
# Conditions: not given
# Sequence of Cholinesterase (P06276 whole entry): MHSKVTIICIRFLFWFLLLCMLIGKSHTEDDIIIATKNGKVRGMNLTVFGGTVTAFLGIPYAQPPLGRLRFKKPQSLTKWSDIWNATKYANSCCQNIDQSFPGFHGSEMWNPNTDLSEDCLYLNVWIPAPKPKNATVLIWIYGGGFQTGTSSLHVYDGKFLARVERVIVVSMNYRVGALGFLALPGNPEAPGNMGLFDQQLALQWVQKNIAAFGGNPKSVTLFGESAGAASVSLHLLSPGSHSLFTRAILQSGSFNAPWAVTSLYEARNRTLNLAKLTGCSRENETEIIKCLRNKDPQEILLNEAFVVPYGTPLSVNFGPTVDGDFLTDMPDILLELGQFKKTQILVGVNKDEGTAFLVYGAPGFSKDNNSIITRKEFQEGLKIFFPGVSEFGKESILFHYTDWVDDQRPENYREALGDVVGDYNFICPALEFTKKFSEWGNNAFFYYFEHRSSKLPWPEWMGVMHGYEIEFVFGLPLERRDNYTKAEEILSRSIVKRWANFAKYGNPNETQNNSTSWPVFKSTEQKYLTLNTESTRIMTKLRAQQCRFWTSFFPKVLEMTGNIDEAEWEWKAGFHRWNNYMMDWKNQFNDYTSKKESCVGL
row,SMILES,IC50 [µM]
1,S=C(NNc1c2c(nc3ccccc13)CCCC2)Nc1ccccc1,0.748
2,C(=N\Nc1c2c(nc3ccccc13)CCCC2)/c1ccc(OCc2cn(-c3ccccc3)nn2)cc1,0.054
3,Cc1ccc(-n2cc(COc3ccc(/C=N/Nc4c5c(nc6ccccc46)CCCC5)cc3)nn2)cc1.Cl,0.0757
4,S=C(NNc1c2c(nc3ccccc13)CCCC2)Nc1ccc(Cl)cc1,0.328
5,C=CCNC(=S)NNc1c2c(nc3ccccc13)CCCC2,0.722
6,NS(=O)(=O)c1ccc(-n2cc(COc3ccc(/C=N/Nc4c5c(nc6ccccc46)CCCC5)cc3)nn2)cc1,0.0389
7,O=[N+]([O-])c1cccc(-n2cc(COc3ccc(/C=N/Nc4c5c(nc6ccccc46)CCCC5)cc3)nn2)c1,0.0482
8,COc1ccc(-n2cc(COc3ccc(/C=N/Nc4c5c(nc6ccccc46)CCCC5)cc3)nn2)cc1.Cl,0.0682
9,Brc1ccc(-n2cc(COc3ccc(/C=N/Nc4c5c(nc6ccccc46)CCCC5)cc3)nn2)cc1.Cl,0.0926

# Test system: not listed separately
# Assay: in vitro
# Conditions: PAMPA, pH 7.4
row,SMILES,"Papp at 6 h, 50 µM [×10⁻⁶ cm/s]"
1,Cc1ccc(-n2cc(COc3ccc(/C=N/Nc4c5c(nc6ccccc46)CCCC5)cc3)nn2)cc1.Cl,5.5
2,COc1ccc(-n2cc(COc3ccc(/C=N/Nc4c5c(nc6ccccc46)CCCC5)cc3)nn2)cc1.Cl,6.35
3,Brc1ccc(-n2cc(COc3ccc(/C=N/Nc4c5c(nc6ccccc46)CCCC5)cc3)nn2)cc1.Cl,6.26
